Tests used:
Type in all cases: binding
Adenosine A3 = molecular target: T1, Adenosine A3 (Homo sapiens, UniProt P0DMS8); assay: off-target screen panel; conditions: Human recombinant, [^125I]AB-MECA
T1 construct: purchased Eurofins Panlabs Discovery Services (Taiwan)

Adrenergic α1A = molecular target: T2, Adrenergic α1A (Rattus norvegicus, UniProt P43140); assay: off-target screen panel; conditions: Rat submaxillary gland, [^3H]Prazosin
T2 construct: purchased Eurofins Panlabs Discovery Services (Taiwan)
T2 sequence (P43140 whole entry): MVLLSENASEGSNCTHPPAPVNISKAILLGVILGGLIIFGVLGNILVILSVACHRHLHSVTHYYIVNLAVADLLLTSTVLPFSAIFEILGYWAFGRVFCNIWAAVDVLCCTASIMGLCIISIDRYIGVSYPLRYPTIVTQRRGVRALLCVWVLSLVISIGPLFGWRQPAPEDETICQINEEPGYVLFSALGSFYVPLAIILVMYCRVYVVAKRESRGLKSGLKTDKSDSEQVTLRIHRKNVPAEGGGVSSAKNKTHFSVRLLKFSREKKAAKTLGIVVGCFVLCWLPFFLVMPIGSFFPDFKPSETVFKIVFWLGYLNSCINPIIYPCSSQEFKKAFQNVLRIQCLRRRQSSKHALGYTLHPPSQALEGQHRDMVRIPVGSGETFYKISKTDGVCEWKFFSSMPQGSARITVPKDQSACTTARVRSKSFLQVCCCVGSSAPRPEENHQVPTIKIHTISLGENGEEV

Adrenergic α1B = molecular target: T3, Adrenergic α1B (Rattus norvegicus, UniProt P15823); assay: off-target screen panel; conditions: Rat liver, [^3H]Prazosin
T3 construct: purchased Eurofins Panlabs Discovery Services (Taiwan)

Adrenergic α2A = molecular target: T4, Adrenergic α2A (Homo sapiens, UniProt P08913); assay: off-target screen panel; conditions: Human recombinant, [^3H]Rauwolscine
T4 construct: purchased Eurofins Panlabs Discovery Services (Taiwan)

Bradykinin B1 = molecular target: T5, Bradykinin B1 (Homo sapiens, UniProt P46663); assay: off-target screen panel; conditions: Human IMR-90 cells, [^3H](Des-Arg^10)-Kallidin
T5 construct: purchased Eurofins Panlabs Discovery Services (Taiwan)
T5 sequence (P46663 whole entry): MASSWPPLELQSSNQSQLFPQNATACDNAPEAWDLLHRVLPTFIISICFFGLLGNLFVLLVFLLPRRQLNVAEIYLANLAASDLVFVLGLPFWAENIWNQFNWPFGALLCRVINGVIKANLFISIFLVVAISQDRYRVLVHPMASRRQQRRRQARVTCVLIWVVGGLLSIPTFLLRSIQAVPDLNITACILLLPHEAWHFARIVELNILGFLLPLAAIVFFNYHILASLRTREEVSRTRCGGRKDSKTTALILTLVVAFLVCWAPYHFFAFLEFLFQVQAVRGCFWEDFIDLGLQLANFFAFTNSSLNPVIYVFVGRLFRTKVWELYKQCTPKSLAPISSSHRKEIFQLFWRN

Bradykinin B2 = molecular target: T6, Bradykinin B2 (Homo sapiens, UniProt P30411); assay: off-target screen panel; conditions: Human recombinant, [^3H]Bradykinin
T6 construct: purchased Eurofins Panlabs Discovery Services (Taiwan)
T6 sequence (P30411 whole entry): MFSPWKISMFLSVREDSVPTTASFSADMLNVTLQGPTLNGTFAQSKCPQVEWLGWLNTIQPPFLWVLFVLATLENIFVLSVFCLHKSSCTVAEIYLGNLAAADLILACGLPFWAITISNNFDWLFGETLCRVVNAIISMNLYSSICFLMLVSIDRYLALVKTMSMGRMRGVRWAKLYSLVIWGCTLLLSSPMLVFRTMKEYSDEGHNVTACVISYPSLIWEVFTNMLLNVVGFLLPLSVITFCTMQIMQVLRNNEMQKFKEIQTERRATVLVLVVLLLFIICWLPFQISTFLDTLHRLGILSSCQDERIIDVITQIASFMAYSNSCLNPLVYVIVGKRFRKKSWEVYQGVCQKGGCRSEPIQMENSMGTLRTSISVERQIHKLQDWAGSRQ

Cannabinoid CB1 = molecular target: T7, Cannabinoid CB1 (Homo sapiens, UniProt P21554); assay: off-target screen panel; conditions: Human recombinant, [^3H]SR141716A
T7 construct: purchased Eurofins Panlabs Discovery Services (Taiwan)

Dopamine D1 = molecular target: T8, Dopamine D1 (Homo sapiens, UniProt P21728); assay: off-target screen panel; conditions: Human recombinant, [^3H]SCH-23390
T8 construct: purchased Eurofins Panlabs Discovery Services (Taiwan)
T8 sequence (P21728 whole entry): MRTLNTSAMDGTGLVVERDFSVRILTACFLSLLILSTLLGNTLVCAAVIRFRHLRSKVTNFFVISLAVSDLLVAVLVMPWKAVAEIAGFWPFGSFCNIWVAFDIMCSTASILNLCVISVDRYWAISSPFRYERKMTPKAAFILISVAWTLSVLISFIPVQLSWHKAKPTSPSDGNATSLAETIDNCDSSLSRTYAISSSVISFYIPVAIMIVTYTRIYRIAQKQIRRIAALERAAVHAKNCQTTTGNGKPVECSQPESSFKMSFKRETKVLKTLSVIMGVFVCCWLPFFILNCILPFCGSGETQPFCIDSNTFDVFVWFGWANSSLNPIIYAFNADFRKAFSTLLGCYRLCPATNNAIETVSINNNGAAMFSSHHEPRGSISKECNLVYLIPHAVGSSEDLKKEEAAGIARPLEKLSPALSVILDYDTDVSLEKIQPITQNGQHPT

Dopamine D3 = molecular target: T9, Dopamine D3 (Homo sapiens, UniProt P35462); assay: off-target screen panel; conditions: Human recombinant, [^3H]Spiperone
T9 construct: purchased Eurofins Panlabs Discovery Services (Taiwan)
T9 sequence (P35462 whole entry): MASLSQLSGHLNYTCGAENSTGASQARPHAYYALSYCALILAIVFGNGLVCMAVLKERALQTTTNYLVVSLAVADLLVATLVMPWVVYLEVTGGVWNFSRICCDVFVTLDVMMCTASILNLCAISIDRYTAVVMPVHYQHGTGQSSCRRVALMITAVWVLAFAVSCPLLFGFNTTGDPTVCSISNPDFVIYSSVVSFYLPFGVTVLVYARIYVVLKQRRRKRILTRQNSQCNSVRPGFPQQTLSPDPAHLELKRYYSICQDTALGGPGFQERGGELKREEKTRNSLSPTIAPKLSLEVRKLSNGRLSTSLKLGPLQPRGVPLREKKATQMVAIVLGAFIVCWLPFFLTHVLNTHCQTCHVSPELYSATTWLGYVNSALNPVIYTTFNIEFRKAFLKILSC

Endothelin ETB = molecular target: T10, Endothelin ETB (Homo sapiens, UniProt P24530); assay: off-target screen panel; conditions: Human recombinant, [^125I]Endothelin-1
T10 construct: purchased Eurofins Panlabs Discovery Services (Taiwan)

[1] = molecular target: T11, Epidermal Growth Factor (EGF) (Homo sapiens, UniProt P00533); assay: off-target screen panel; conditions: Human A431 cells, [^125I]EGF
T11 construct: purchased Eurofins Panlabs Discovery Services (Taiwan)

[2] = test system: GABAA, Flunitrazepam, Central; assay: off-target screen panel; conditions: Rat brain (minus cerebellum), [^3H]Flunitrazepam
GABAA, Muscimol, Central = assay: off-target screen panel; conditions: Rat brain (minus cerebellum), [^3H]Muscimol
GABAB1A = molecular target: T12, GABAB1A (Homo sapiens, UniProt Q9UBS5); assay: off-target screen panel; conditions: Human recombinant, [^3H]CGP-54626
T12 construct: purchased Eurofins Panlabs Discovery Services (Taiwan)

Glucocorticoid = molecular target: T13, Glucocorticoid (Homo sapiens, UniProt P04150); assay: off-target screen panel; conditions: Human recombinant, [^3H]Dexamethasone
T13 construct: purchased Eurofins Panlabs Discovery Services (Taiwan)

Glutamate, Kainate = assay: off-target screen panel; conditions: Rat brain cortex, [^3H]Kainic acid
[3] = test system: Glutamate, NMDA, Phencyclidine; assay: off-target screen panel; conditions: Rat cerebral cortex, [^3H]TCP
Histamine H1 = molecular target: T14, Histamine H1 (Homo sapiens, UniProt P35367); assay: off-target screen panel; conditions: Human recombinant, [^3H]Pyrilamine
T14 construct: purchased Eurofins Panlabs Discovery Services (Taiwan)

Histamine H2 = molecular target: T15, Histamine H2 (Homo sapiens, UniProt P25021); assay: off-target screen panel; conditions: Human recombinant, [^125I]Aminopotentidine
T15 construct: purchased Eurofins Panlabs Discovery Services (Taiwan)

Histamine H3 = molecular target: T16, Histamine H3 (Homo sapiens, UniProt Q9Y5N1); assay: off-target screen panel; conditions: Human recombinant, [^3H]N-α-Methylhistamine
T16 construct: purchased Eurofins Panlabs Discovery Services (Taiwan)

Interleukin IL-1 R1 = molecular target: T17, Interleukin IL-1 R1 (Homo sapiens, UniProt P14778); assay: off-target screen panel; conditions: Human recombinant, [^125I]Interleukin-1β
T17 construct: purchased Eurofins Panlabs Discovery Services (Taiwan)

Melatonin MT1 = molecular target: T18, Melatonin MT1 (Homo sapiens, UniProt P48039); assay: off-target screen panel; conditions: Human recombinant, [^125I]2-Iodomelatonin
T18 construct: purchased Eurofins Panlabs Discovery Services (Taiwan)

Neuropeptide Y Y2 = molecular target: T19, Neuropeptide Y Y2 (Homo sapiens, UniProt P49146); assay: off-target screen panel; conditions: Human KAN-TS cells, [^125I]Peptide YY
T19 construct: purchased Eurofins Panlabs Discovery Services (Taiwan)
T19 sequence (P49146 whole entry): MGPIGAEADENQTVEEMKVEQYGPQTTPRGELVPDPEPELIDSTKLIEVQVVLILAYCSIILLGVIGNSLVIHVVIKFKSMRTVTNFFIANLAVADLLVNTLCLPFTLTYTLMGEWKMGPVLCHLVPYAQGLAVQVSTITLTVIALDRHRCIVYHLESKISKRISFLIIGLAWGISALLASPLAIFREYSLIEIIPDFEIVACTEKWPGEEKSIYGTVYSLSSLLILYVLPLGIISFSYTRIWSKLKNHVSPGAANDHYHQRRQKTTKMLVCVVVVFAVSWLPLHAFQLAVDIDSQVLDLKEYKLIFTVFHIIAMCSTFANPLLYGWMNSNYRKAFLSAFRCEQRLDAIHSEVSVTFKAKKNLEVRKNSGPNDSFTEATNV

[4] = molecular target: T20, Nicotinic Acetylcholine α1, Bungarotoxin (Homo sapiens, UniProt P02708+P07510+Q07001); assay: off-target screen panel; conditions: read-out: Inhibition (%) at 1 μM
T20 construct: purchased Eurofins Panlabs Discovery Services (Taiwan)
T20 sequence (Q07001 22-517): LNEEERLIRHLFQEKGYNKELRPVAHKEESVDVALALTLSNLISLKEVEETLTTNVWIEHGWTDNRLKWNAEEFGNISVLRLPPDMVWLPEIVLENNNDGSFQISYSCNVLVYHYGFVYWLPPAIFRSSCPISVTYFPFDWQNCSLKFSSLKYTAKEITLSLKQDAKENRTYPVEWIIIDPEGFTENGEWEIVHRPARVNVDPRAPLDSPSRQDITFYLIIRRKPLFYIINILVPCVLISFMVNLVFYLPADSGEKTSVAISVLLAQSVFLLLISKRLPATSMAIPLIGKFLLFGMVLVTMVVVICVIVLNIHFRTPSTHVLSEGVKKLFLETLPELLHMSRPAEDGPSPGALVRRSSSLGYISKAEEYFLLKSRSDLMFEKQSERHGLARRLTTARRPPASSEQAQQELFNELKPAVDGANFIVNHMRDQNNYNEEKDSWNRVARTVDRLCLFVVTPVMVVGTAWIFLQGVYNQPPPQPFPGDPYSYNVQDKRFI
T20 sequence (P02708 21-457): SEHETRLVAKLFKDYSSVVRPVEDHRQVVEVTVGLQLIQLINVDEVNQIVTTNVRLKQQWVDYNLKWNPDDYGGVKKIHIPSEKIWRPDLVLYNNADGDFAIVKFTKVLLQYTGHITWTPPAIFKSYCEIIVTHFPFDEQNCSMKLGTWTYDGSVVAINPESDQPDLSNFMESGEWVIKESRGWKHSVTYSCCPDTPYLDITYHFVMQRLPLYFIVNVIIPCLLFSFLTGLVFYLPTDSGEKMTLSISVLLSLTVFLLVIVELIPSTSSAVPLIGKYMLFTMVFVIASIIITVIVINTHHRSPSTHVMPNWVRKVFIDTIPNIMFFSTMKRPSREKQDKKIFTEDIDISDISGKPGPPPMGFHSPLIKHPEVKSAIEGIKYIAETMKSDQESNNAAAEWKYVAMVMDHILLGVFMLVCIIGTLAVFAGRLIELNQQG
T20 sequence (P07510 23-517): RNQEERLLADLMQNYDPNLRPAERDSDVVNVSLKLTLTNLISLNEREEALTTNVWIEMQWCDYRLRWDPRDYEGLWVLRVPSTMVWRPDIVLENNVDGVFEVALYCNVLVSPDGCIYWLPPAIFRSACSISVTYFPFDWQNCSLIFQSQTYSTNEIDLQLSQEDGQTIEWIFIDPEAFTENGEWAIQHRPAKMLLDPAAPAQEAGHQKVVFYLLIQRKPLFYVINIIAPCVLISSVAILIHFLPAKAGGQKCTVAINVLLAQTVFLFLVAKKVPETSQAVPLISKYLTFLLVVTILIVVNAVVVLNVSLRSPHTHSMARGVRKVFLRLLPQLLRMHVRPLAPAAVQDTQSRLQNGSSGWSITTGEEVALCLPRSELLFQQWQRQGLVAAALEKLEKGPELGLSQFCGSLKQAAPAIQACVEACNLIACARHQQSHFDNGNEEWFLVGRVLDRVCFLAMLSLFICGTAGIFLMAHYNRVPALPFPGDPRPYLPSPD
T20 sequence (P11230 24-501, further chain): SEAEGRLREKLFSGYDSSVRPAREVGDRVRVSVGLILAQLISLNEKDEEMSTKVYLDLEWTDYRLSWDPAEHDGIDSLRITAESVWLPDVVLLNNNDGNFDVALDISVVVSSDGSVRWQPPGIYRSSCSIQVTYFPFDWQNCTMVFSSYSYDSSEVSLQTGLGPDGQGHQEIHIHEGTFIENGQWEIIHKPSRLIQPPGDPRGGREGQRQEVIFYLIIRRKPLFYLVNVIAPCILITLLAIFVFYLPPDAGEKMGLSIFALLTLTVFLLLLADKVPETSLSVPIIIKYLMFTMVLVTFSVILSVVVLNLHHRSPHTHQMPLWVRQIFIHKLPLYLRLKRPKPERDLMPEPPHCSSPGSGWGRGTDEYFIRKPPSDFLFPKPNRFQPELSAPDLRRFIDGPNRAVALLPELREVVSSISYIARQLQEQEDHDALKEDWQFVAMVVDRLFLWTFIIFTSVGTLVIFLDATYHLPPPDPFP

Opiate κ (OP2, KOP) = molecular target: T21, Opiate κ (OP2, KOP) (Homo sapiens, UniProt P41145); assay: off-target screen panel; conditions: Human recombinant, [^3H]Diprenorphine
T21 construct: purchased Eurofins Panlabs Discovery Services (Taiwan)

[5] = molecular target: T22, Platelet Activating Factor (PAF) (Homo sapiens, UniProt P25105); assay: off-target screen panel; conditions: Human platelets, [^3H]PAF
T22 construct: purchased Eurofins Panlabs Discovery Services (Taiwan)

Potassium Channel [KATP] = assay: off-target screen panel; conditions: Hamster pancreatic HIT-T15 beta cells, [^3H]Glyburide
hERG potassium channel = molecular target: T23, hERG potassium channel (Homo sapiens, UniProt Q12809); assay: off-target screen panel; conditions: human recombinant hERG potassium channel, probe [^3H]Astemizole
T23 construct: purchased Eurofins Panlabs Discovery Services (Taiwan)

Prostanoid EP4 = molecular target: T24, Prostanoid EP4 (Homo sapiens, UniProt P35408); assay: off-target screen panel; conditions: Human recombinant, [^3H]Prostaglandin E2 (PGE2)
T24 construct: purchased Eurofins Panlabs Discovery Services (Taiwan)

Purinergic P2Y = assay: off-target screen panel; conditions: Rat brain, [^35S]ATP-αS
PDE4 = assay: off-target screen panel; conditions: Rat brain, [^3H]Rolipram
[6] = molecular target: T25, Serotonin (5-Hydroxytryptamine) 5-HT3 (Homo sapiens, UniProt P46098); assay: off-target screen panel; conditions: Human recombinant, [^3H]GR-65630
T25 construct: purchased Eurofins Panlabs Discovery Services (Taiwan)
T25 sequence (P46098 24-478): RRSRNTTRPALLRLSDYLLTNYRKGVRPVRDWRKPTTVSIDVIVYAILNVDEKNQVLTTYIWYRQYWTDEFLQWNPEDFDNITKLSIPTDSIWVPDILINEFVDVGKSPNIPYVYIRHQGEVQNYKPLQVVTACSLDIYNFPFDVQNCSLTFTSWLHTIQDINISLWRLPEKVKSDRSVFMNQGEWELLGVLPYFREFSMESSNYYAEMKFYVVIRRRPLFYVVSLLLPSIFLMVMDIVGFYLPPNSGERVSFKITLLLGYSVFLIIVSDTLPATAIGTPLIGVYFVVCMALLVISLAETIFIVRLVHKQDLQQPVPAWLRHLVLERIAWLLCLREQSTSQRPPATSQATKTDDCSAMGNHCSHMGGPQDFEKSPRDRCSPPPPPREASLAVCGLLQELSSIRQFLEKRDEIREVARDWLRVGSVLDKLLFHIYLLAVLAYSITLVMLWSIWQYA

Sodium Channel, Site 2 = assay: off-target screen panel; conditions: Rat brain, [^3H]Batrachotoxinin
Tachykinin NK1 = molecular target: T26, Tachykinin NK1 (Homo sapiens, UniProt P25103); assay: off-target screen panel; conditions: Human recombinant, [^3H]Substance P
T26 construct: purchased Eurofins Panlabs Discovery Services (Taiwan)

Thyroid Hormone = assay: off-target screen panel; conditions: Rat liver, [^125I]Triiodothyronine
Transporter, GABA = assay: off-target screen panel; conditions: Rat cerebral cortex, [^3H]GABA
67 non-PDE molecules = assay: off-target screen panel, overall statement; conditions: all 67 non-PDE molecules of the panel

C[C@@H]1CC[C@H](C)N(c2nnc3c(N)ncc(C#N)n23)C1 (relative stereo) [MTP38, 8-amino-3-(2S*,5R*-dimethyl-1-piperidyl)-[1,2,4]triazolo[4,3-a]pyrazine-5-carbonitrile]
inhibition at 1 µM (Adenosine A3): 10% | inhibition at 1 µM (Adrenergic α1A): 8% | inhibition at 1 µM (Adrenergic α1B): -3% | inhibition at 1 µM (Adrenergic α2A): 4% | inhibition at 1 µM (Bradykinin B1): 9% | inhibition at 1 µM (Bradykinin B2): 2% | inhibition at 1 µM (Cannabinoid CB1): -6% | inhibition at 1 µM (Dopamine D1): -14% | inhibition at 1 µM (Dopamine D3): 0% | inhibition at 1 µM (Endothelin ETB): 3% | inhibition at 1 µM [1]: 1% | Inhibition (%) at 1 μM [2]: -2% | Inhibition (%) at 1 μM (GABAA, Muscimol, Central): -10% | inhibition at 1 µM (GABAB1A): -10% | inhibition at 1 µM (Glucocorticoid): 0% | Inhibition (%) at 1 μM (Glutamate, Kainate): -2% | Inhibition (%) at 1 μM [3]: -5% | inhibition at 1 µM (Histamine H1): -20% | inhibition at 1 µM (Histamine H2): -9% | inhibition at 1 µM (Histamine H3): 9% | inhibition at 1 µM (Interleukin IL-1 R1): -5% | inhibition at 1 µM (Melatonin MT1): 7% | inhibition at 1 µM (Neuropeptide Y Y2): 6% | inhibition at 1 µM [4]: 15% | inhibition at 1 µM (Opiate κ (OP2, KOP)): 9% | inhibition at 1 µM [5]: 4% | Inhibition (%) at 1 μM (Potassium Channel [KATP]): 5% | inhibition at 1 µM (hERG potassium channel): 17% | inhibition at 1 µM (Prostanoid EP4): 8% | Inhibition (%) at 1 μM (Purinergic P2Y): -20% | Inhibition (%) at 1 μM (PDE4): 74% | inhibition at 1 µM [6]: -11% | Inhibition (%) at 1 μM (Sodium Channel, Site 2): 1% | inhibition at 1 µM (Tachykinin NK1): 9% | Inhibition (%) at 1 μM (Thyroid Hormone): 7% | Inhibition (%) at 1 μM (Transporter, GABA): -2% | inhibitions at 1 μM of the 67 non-PDE molecules tested (67 non-PDE molecules): less than 50%
